≈ marks a conversion by molar mass, not a printed value.

Results on 7 compounds are retold here after US9133219B2, “Bicyclic antibiotics” (Basilea Pharmaceutica AG, priority 2009, dated 2015).

Assay type in all cases: cell-based
Assay [1] deals with Staphylococcus aureus and/or Staphylococcus epidermidis and/or Streptococcus pneumoniae and/or Escherichia coli. The assay can be described thus: MIC summary statement, staphylococci, pneumococci and E. coli. Conditions: generally, for S. aureus and/or S. epidermidis and/or S. pneumoniae and/or E. coli; in most case of less than 2 mg/L. The protocol:
(§1) Anti-Microbial Activity Assay.
(§2) The antibacterial activity of compounds is determined by the minimal inhibitory concentration (MIC) method. MICs for all bacteria except pneumococci and Haemophilus influenzae are obtained by broth microdilution with cation-adjusted Mueller-Hinton broth (CAMHB; BBL), according to CLSI guidelines (National Committee for Clinical Laboratory Standards. 2003. Methods for dilution antimicrobial susceptibility tests for bacteria that grow aerobically, 5th ed.; approved standard M7-A6. National Committee for Clinical Laboratory Standards, Wayne, Pa.), with the following modifications: (i) for pneumococci CAMHB is supplemented with 5% (^v/v) horse serum; (ii) for Haemophilus influenzae CAMHB is supplemented with 5% (^v/v) Fildes enrichment (BBL) (Pankuch, G. A., Hoellman, D. B., Lin, G., Bajaksouzian, S., Jacobs, M. R., and Appelbaum, P. C. 1998. Activity of HMR 3647 compared to those of five agents against Haemophilus influenzae and Moraxella catarrhalis by MIC determination and time-kill assay. Antimicrob. Agents Chemother. 42:3032-3034). Microtiter plates are incubated at 35° C. in ambient air for 20 to 24 h, then inspected using an illuminated microtiter plate reader fitted with a magnifying mirror (MIC 2000; Cooke Laboratory Products, Alexandria, Va.). Compounds of the present invention are tested against several bacteria strains comprising some Acinetobacter baumannii, Enterococcus faecalis, Enterococcus faecitan, Escherichia coli, Haemophilus influenzae, Klebsiella pneumoniae, Pseudomonas aeruginosa, Staphylococcus aureus, Staphylococcus epidermidis and Streptococcus pneumoniae.

Another assay deals with Streptococcus pneumoniae. Description: Anti-microbial activity assay, MIC by broth microdilution (CAMHB with 5% horse serum). The settings on record: Streptococcus pneumoniae; strain ATCC49619; CAMHB with 5% horse serum; read-out: MIC Streptococcus pneumoniae ATCC49619. In outline:
(§3)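 Minimal inhibitory concentration is the read-out: serial dilutions in cation-adjusted Mueller-Hinton broth, per CLSI, are inoculated and held 20 to 24 h at 35° C in ambient air, then inspected on a lit magnifying reader.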

Assay [2] deals with Staphylococcus epidermidis. The assay can be described thus: Anti-microbial activity assay, MIC by broth microdilution. The settings on record: Staphylococcus epidermidis; strain ATCC14990. Put shortly:
as §3

The subject of the next assay is Escherichia coli. The description is as above. Conditions: Escherichia coli; strain UB1005; read-out: MIC Escherichia coli UB1005. In outline:
as §3

The subject of a further assay is Staphylococcus aureus. Described as above. The settings on record: Staphylococcus aureus; strain ATCC29213; read-out: MIC Staphylococcus aureus ATCC29213. In outline: as §3
The subject of assay [3] is Staphylococcus aureus and/or Staphylococcus epidermidis. Description: MIC summary statement, staphylococci. The settings on record: generally, for Staphylococcus aureus and/or Staphylococcus epidermidis. In outline:
as §3

For assay [4], the system named is Staphylococcus aureus and/or Staphylococcus epidermidis and/or Streptococcus pneumoniae. Description: MIC summary statement, staphylococci and pneumococci. Conditions: generally, for Staphylococcus aureus and/or Staphylococcus epidermidis and/or Streptococcus pneumoniae. The protocol:
as §1, §2

`COc1ccc2ncc(OCCCN3CCC(CNCc4ccc5c(n4)NC(=O)CO5)CC3)nc2c1` [Example 9, 6-[({1-[3-(7-methoxy-quinoxalin-2-yloxy)-propyl]-piperidin-4-ylmethyl}-amino)-methyl]-4H-pyrido[3,2-b][1,4]oxazin-3-one]: the MIC in assay [1] is ≤ 4 µg/mL; in the assay with Streptococcus pneumoniae, ≤ 2 µg/mL; in assay [2] it was 4 µg/mL (≈ 8.12 µM); in the assay on Escherichia coli, 4 µg/mL (≈ 8.12 µM); in the assay on Staphylococcus aureus it was ≤ 2 µg/mL; in assay [3], ≤ 2 µg/mL. Also, the MIC in assay [4] was ≤ 2 µg/mL.
For the compound `COc1ccc2ncc(SCCN3CCC(NC(=O)c4ccc5c(c4)NC(=O)CO5)CC3)nc2c1` [Example 36, 3-oxo-3,4-dihydro-2H-benzo[1,4]oxazine-6-carboxylic acid {1-[2-(7-methoxy-quinoxalin-2-ylsulfanyl)-ethyl]-piperidin-4-yl}-amide], the MIC in assay [1] is ≤ 4 µg/mL; in the assay on Streptococcus pneumoniae, ≤ 2 µg/mL; in assay [2], ≤ 2 µg/mL; with Escherichia coli it was 4 µg/mL (≈ 8.1 µM); in the assay on Staphylococcus aureus, ≤ 2 µg/mL; in assay [3], ≤ 2 µg/mL. Also, the MIC in assay [4] is ≤ 2 µg/mL.
On to `COc1ccc2ncc(SCCN3CCC(NC(=O)c4cc5c(cc4Cl)SCCN5)CC3)nc2c1` [Example 44, 7-chloro-3,4-dihydro-2H-benzo[1,4]thiazine-6-carboxylic acid {1-[2-(7-methoxy-quinoxalin-2-ylsulfanyl)-ethyl]-piperidin-4-yl}-amide], for which the MIC in assay [1] was ≤ 4 µg/mL; with Streptococcus pneumoniae it was 4 µg/mL (≈ 7.55 µM); in assay [2] it was ≤ 2 µg/mL; in the assay on Escherichia coli it was 4 µg/mL (≈ 7.55 µM); in the assay on Staphylococcus aureus, ≤ 2 µg/mL; in assay [3], ≤ 2 µg/mL.
`COc1ccc2ncc(SCCN3CCC(NC(=O)c4nc5c(cc4Cl)SCC(=O)N5)CC3)nc2c1` [Example 51, 7-chloro-3-oxo-3,4-dihydro-2H-pyrido[3,2-b][1,4]thiazine-6-carboxylic acid {1-[2-(7-methoxy-quinoxalin-2-ylsulfanyl)-ethyl]-piperidin-4-yl}-amide]: the MIC in assay [1] was ≤ 4 µg/mL; in the assay with Streptococcus pneumoniae it was 4 µg/mL (≈ 7.34 µM); in assay [2], ≤ 2 µg/mL; in the assay with Escherichia coli, 4 µg/mL (≈ 7.34 µM); in the assay with Staphylococcus aureus, ≤ 2 µg/mL; in assay [3], ≤ 2 µg/mL.
With `COc1ccc2ncc(SCCN3CCC(N(C)C(=O)c4ccc5c(c4)NC(=O)CS5)CC3)nc2c1` [Example 52, 3-oxo-3,4-dihydro-2H-benzo[1,4]thiazine-6-carboxylic acid {1-[2-(7-methoxy-quinoxalin-2-ylsulfanyl)-ethyl]-piperidin-4-yl}-methyl-amide], the MIC in the assay on Streptococcus pneumoniae was ≤ 2 µg/mL; in assay [2] it was ≤ 2 µg/mL; in the assay on Escherichia coli, 16 µg/mL (≈ 30.6 µM); with Staphylococcus aureus, ≤ 2 µg/mL; in assay [3], ≤ 2 µg/mL; in assay [4], ≤ 2 µg/mL.
With `COc1ccc2ncc(SCCN3CCC(NC(=O)c4cc5c(cc4Cl)SCC(=O)N5)CC3)cc2c1` [Example 54, 7-chloro-3-oxo-3,4-dihydro-2H-benzo[1,4]thiazine-6-carboxylic acid {1-[2-(6-methoxy-quinolin-3-ylsulfanyl)-ethyl]-piperidin-4-yl}-amide], the MIC in assay [1] was ≤ 4 µg/mL; in the assay on Streptococcus pneumoniae, 4 µg/mL (≈ 7.36 µM); in assay [2], ≤ 2 µg/mL; with Escherichia coli, 4 µg/mL (≈ 7.36 µM); in the assay with Staphylococcus aureus, ≤ 2 µg/mL; in assay [3] it was ≤ 2 µg/mL.
`COc1ccc2ncc(SCCN3CCC(NC(=O)c4ccc5c(n4)NC(=O)CS5)CC3)cc2c1` [Example 55, 3-oxo-3,4-dihydro-2H-pyrido[3,2-b][1,4]thiazine-6-carboxylic acid {1-[2-(6-methoxy-quinolin-3-ylsulfanyl)-ethyl]-piperidin-4-yl}-amide]: the MIC in the assay on Streptococcus pneumoniae was ≤ 2 µg/mL; in assay [2], ≤ 2 µg/mL; in the assay with Escherichia coli, 16 µg/mL (≈ 31.4 µM); in the assay with Staphylococcus aureus it was ≤ 2 µg/mL; in assay [3], ≤ 2 µg/mL; in assay [4], ≤ 2 µg/mL.
